{"source": "patent US20120101230A1", "about": "“HIGH-DENSITY POLYMER SURFACE COATING TO IMMOBILIZE CHEMICAL OR BIOLOGICAL MOLECULES” (priority 2009, published 2012)", "key": {"[1]": {"test": "Streptavidin/avidin immobilization on high-density polymer (PAA) surfaces, SWS biosensor PWV shift", "format": "binding", "description": "(§1) In order to immobilize protein to the novel surfaces, the high-density polymer surfaces of Examples 2 and 3 were activated by adding 0.34 M EDC/10 mM NHS in water for 10 min, followed by removing the solution. In an initial test of protein immobilization capability and protein activity following immobilization, biotin binding to immobilized streptavidin was used—20 μL of either 200 μg/ml avidin or streptavidin in a non-amine containing buffer (10 mM acetate buffer, pH 5.0) were added to the surface and incubated for 3 hr, followed by a wash first with the non-amine containing buffer, then PBS. Biotin was then added for binding to the immobilized avidin or streptavidin by using a 20 μL of a biotin solution in PBS to result in a final Biotin concentration of approximately 58 μM (N=4).\nThe initial test was followed up by reacting different concentrations of avidin or streptavidin with the different high-density polymer surfaces.\n(§2) 20 μL of either 0, 50, or 200 μg/ml avidin or streptavidin in a non-amine containing buffer were added to the wells after they were pre-activated for 10 min with EDC/NHS, and incubated for 3 hr. This was then followed by a wash first with the non-amine containing buffer. Biotin was then added for binding to the immobilized avidin or streptavidin by adding 20 μL of a biotin solution in PBS to result in a final Biotin concentration of approximately 58 μM (N=4)."}, "[2]": {"biological_target": "T1, recombinant human trypsin (Homo sapiens, UniProt P07477)", "T1 construct": "purchased Polymum Lot#H149L091.1", "test": "Small molecule binding to trypsin-immobilized surface, PWV shift", "description": "(§3) Trypsin was tested to determine what other proteins could be successfully immobilized on high-density polymer surfaces. Like above, high-density polymer surfaces were activated by adding 0.34 M EDC/10 mM NHS in water for 10 min, followed by removing the solution. 50 μg/ml trypsin in non-amine containing buffer was added to the wells, and was incubated for up to around 700 min, followed by a wash first with acetic buffer, then PBS. The trypsin was recombinant human protein from Polymum Lot#H149L091.1. The results of trypsin binding over time, as a function of delta PWV, are shown in FIG. 14, as well as an NHS control. 90% of the protein was immobilized within less than 2 hr. Benzamidine was then added for binding to the immobilized trypsin by adding benzamidine at a final concentration of 67 μM in PBS, pH 7.4. Benzamidine has a molecular weight of 120.15, and an expected delta PWV or PWV shift of 36 pm.\n(§4) Antipain was then added for binding to the low COOH density surfaces. 49.2, 12.3, 3.1, and 1 μM antipain dihydrochloride in PBS was prepared from a microbial source and was added to the 3.8 nm delta PWV shift from trypsin immobilization. 49.2 μM antipain was also added to no trypsin control wells (N=4). […] The theoretical shift of antipain of 1:1 binding on 3.8 nm delta PWV shift trypsin surface is […]. The control, 49.2 μM antipain in a well with no trypsin immobilization, had […] bulk or NSB PWV shift.\n(§5) Leupeptin was also added for binding to the low COOH density surfaces. 88, 22, 5.5, and 0 μM leupeptin dihydrochloride solutions in PBS were prepared and were added to the 3.8 nm delta PWV shift trypsin immobilization surfaces. 88 μM leupeptin was also added to no trypsin control wells (N=2). […] The theoretical shift of leupeptin of 1:1 binding on 3.8 nm delta PWV trypsin is […]. The control 88 μM leupeptin with no trypsin immobilization had 12 nm bulk or NSB shift."}, "[3]": {"test": "Bulk or NSB PWV shift in no trypsin control wells", "conditions": "88 μM leupeptin, no trypsin immobilization", "description": "as §4, §5"}, "[4]": {"test": "Trypsin immobilization on high-density polymer surfaces, delta PWV", "format": "binding", "conditions": "for course of immobilization: 10 mM acetate buffer pH 5.0, 3 hr", "description": "as §3\nTrypsin binding was also measured on both high and low COOH density surfaces. 100 μg of human recombinant trypsin in 10 mM acetate buffer pH 5.0 was immobilized on either a high or low COOH density surface for 3 hr."}, "streptavidin": {"biological_target": "streptavidin (Streptomyces avidinii, UniProt P22629)", "sequence (P22629 25-183, species assumed)": "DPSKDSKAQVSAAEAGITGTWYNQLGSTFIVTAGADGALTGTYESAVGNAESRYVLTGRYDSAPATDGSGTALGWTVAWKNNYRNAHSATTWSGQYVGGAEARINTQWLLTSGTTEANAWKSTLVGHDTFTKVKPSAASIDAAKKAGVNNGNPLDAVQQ", "test": "Biotin binding to immobilized streptavidin on PAA surfaces", "description": "as §1, §2"}, "avidin": {"biological_target": "avidin (Gallus gallus, UniProt P02701)", "sequence (P02701 25-152, species assumed)": "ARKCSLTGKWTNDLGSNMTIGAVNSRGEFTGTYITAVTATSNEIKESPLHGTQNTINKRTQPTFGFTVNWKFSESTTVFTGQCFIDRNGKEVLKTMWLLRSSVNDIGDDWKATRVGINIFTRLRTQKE", "test": "Biotin binding to immobilized avidin on PAA surfaces", "description": "as §1, §2"}, "[5]": {"conditions": "PAA 100K, high COOH density surface, coated with 1/6 dilution NHS/EDC (theta condition) compared to the other dilutions"}, "[6]": {"conditions": "PAA 100K, low COOH density surface, coated with 1/6 dilution NHS/EDC (theta condition) compared to the other dilutions"}, "[7]": {"conditions": "PAA 250K, high COOH density surface, coated with 1/6 and 1/8 dilution NHS/EDC (theta condition) compared to the other dilutions"}, "[8]": {"conditions": "PAA 250K, low COOH density surface, coated with 1/6 and 1/8 dilution NHS/EDC (theta condition) compared to the other dilutions"}, "[9]": {"conditions": "PAA coated under theta condition, biotin approximately 58 μM"}, "[10]": {"conditions": "low COOH density surfaces (versus high)"}}, "note": "Where a name gives a salt, the structure may show the parent alone."}
{"compound": "avidin", "values": [{"measurement": "protein immobilization (PWV)", "setting": "[1]; [5]", "result": "More avidin was immobilized"}, {"measurement": "protein immobilization (PWV)", "setting": "[1]; [6]", "result": "More avidin was immobilized"}, {"measurement": "protein immobilization (PWV)", "setting": "[1]; [7]", "result": "More avidin was immobilized"}, {"measurement": "protein immobilization (PWV)", "setting": "[1]; [8]", "result": "More avidin was immobilized"}]}
{"compound": "streptavidin", "values": [{"measurement": "protein immobilization (PWV)", "setting": "[1]; [5]", "result": "More streptavidin was immobilized"}, {"measurement": "protein immobilization (PWV)", "setting": "[1]; [6]", "result": "More streptavidin was immobilized"}, {"measurement": "protein immobilization (PWV)", "setting": "[1]; [7]", "result": "More streptavidin was immobilized"}, {"measurement": "protein immobilization (PWV)", "setting": "[1]; [8]", "result": "More streptavidin was immobilized"}]}
{"compound": "N=C(N)c1ccccc1", "note": "[Benzamidine]", "values": [{"measurement": "expected delta PWV or PWV shift", "setting": "[2]; benzamidine 67 μM in PBS, pH 7.4", "result": 36, "unit": "pm"}]}
{"compound": "CC(=O)N[C@@H](CC(C)C)C(=O)N[C@@H](CC(C)C)C(=O)N[C@H](C=O)CCCNC(=N)N", "note": "[leupeptin, leupeptin dihydrochloride]", "values": [{"measurement": "binding to immobilized trypsin (titration)", "setting": "[2]; 3.8 nm delta PWV trypsin on low COOH density surface", "result": "Titration of leupeptin was observed"}, {"measurement": "binding to immobilized trypsin", "setting": "[2]; 7.2 nm delta PWV trypsin on high COOH density surface", "result": "No positive result was observed"}, {"measurement": "theoretical shift of 1:1 binding", "setting": "[2]; on 3.8 nm delta PWV shift trypsin surface", "result": 66, "unit": "nm"}, {"measurement": "bulk or NSB shift", "setting": "[3]", "result": 12, "unit": "nm"}]}
{"compound": "trypsin", "values": [{"measurement": "time within which 90% of the protein was immobilized", "setting": "[4]; 50 μg/ml trypsin in non-amine containing buffer", "result": "less than 2 hr"}, {"measurement": "delta PWV of trypsin immobilization", "setting": "[4]; high COOH density surface", "result": 7.2, "unit": "nm"}, {"measurement": "course of immobilization", "setting": "[4]; high COOH density surface", "result": "immobilized rapidly"}, {"measurement": "delta PWV of trypsin immobilization", "setting": "[4]; low COOH density surface", "result": 3.8, "unit": "nm"}, {"measurement": "course of immobilization", "setting": "[4]; low COOH density surface", "result": "slow but rising constantly"}]}
{"compound": "O=C(O)CCCC[C@@H]1SC[C@@H]2NC(=O)N[C@@H]21", "note": "[Biotin]", "values": [{"measurement": "biotin binding", "setting": "streptavidin; [9]", "result": "higher biotin binding"}, {"measurement": "activity of streptavidin for biotin interaction", "setting": "streptavidin; [10]", "result": "more activity"}, {"measurement": "biotin binding", "setting": "avidin; [9]", "result": "higher biotin binding"}, {"measurement": "activity of avidin for biotin interaction", "setting": "avidin; [10]", "result": "more activity"}]}
